# Legend:
# Assay in all cases: combination Emax (second highest fraction inhibited in the dose matrix, 72 h); higher = more inhibition; extreme values may be limits of the assay
# [1] = system: EMC-BAC-2 (Non-Small Cell Lung Carcinoma)
# In short: (§1)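 After 24 hours at 37°C and 5% CO2 in 1536-well plates, cells in DMEM/F12 or RPMI plus 10% FBS received two-drug dose matrices for 72 hours. Viability came from CellTiter-Glo 2.0 luminescence and was scaled as inhibition, anchored at 0 by vehicle wells and at 1 by blank wells. Combination Emax is taken as the second-highest inhibition in the matrix, and Bliss excess as the observed combination effect less EA + EB − EA·EB, with EA and EB the single-agent effects.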
# [2] = system: JHH-7 (Hepatocellular Carcinoma)
# In short: as §1
# [3] = system: VMRC-LCD (Lung Adenocarcinoma)
# In short: as §1
# [4] = system: DG-75 (Burkitt's Lymphoma)
# In short: as §1
# [5] = system: NCI-H1573 (Lung Adenocarcinoma)
# In short: as §1
# NH-12 (Neuroblastoma) = system: NH-12 (Neuroblastoma)
# In short: as §1
# GOTO (Neuroblastoma) = system: GOTO (Neuroblastoma)
# In short: as §1
# [6] = system: HSC-2 (Oral Cavity Carcinoma)
# In short: as §1
# [7] = system: LOU-NH91 (Squamous Cell Lung Carcinoma)
# In short: as §1
# [8] = system: OVISE (Ovarian Carcinoma)
# In short: as §1
# [9] = system: OCUB-M (Breast Carcinoma)
# In short: as §1
# [10] = system: HuP-T3 (Pancreatic Carcinoma)
# In short: as §1
# EW-13 (Ewing's Sarcoma) = system: EW-13 (Ewing's Sarcoma)
# In short: as §1
# [11] = system: PF-382 (T-Lymphoblastic Leukemia)
# In short: as §1
# EW-3 (Ewing's Sarcoma) = system: EW-3 (Ewing's Sarcoma)
# In short: as §1
# [12] = system: LC4-1 (B-Lymphoblastic Leukemia)
# In short: as §1
# [13] = system: NCI-N87 (Gastric Carcinoma)
# In short: as §1
# [14] = system: NCI-H322M (Lung Adenocarcinoma)
# In short: as §1
# [15] = system: SNU-C1 (Colorectal Carcinoma)
# In short: as §1
# [16] = system: SCC-9 (Oral Cavity Carcinoma)
# In short: as §1
smiles,measurement,setting,value
"CCc1c2c(nc3ccc(O)cc13)-c1cc3c(c(=O)n1C2)COC(=O)[C@]3(O)CC [SN-38] + O=C(c1cc(Cc2n[nH]c(=O)c3ccccc23)ccc1F)N1CCN(C(=O)C2CC2)CC1 [Olaparib] (first compound max 0.3 µM, 7x7, partner max 10 µM)",combination Emax,[1],0.531
same,combination Emax,[2],0.289
same,combination Emax,[3],0.121
same,combination Emax,[4],0.852
same,combination Emax,[5],0.187
same,combination Emax,NH-12 (Neuroblastoma),0.903
same,combination Emax,GOTO (Neuroblastoma),0.879
same,combination Emax,[6],0.977
same,combination Emax,[7],0.883
same,combination Emax,[8],0.293
same,combination Emax,[9],0.922
same,combination Emax,[10],0.683
same,combination Emax,EW-13 (Ewing's Sarcoma),0.811
same,combination Emax,[11],1
same,combination Emax,EW-3 (Ewing's Sarcoma),0.884
same,combination Emax,[12],0.948
same,combination Emax,[13],0.722
same,combination Emax,[14],0.869
same,combination Emax,[15],0.349
same,combination Emax,[16],0.365

# — the supplement of paper PMC11061612
